Measurements taken from patent publication US7608642B2, “Wound and skin care compositions” (Kimberly-Clark Worldwide, Inc., priority 2002, dated 2009).
Several values for one entry are separate records, joined by “and”; a condition that tells them apart may be missing. Identical values can stand only once. Entries after “also recorded” stand apart in the source; their conditions may differ. Like-named read-outs stand apart in the source and are kept apart here.

Key:
[1] = tested on: human skin fibroblast cell line (normal human dermal fibroblasts, neonatal); conditions: for Cell proliferating activity on human skin fibroblasts (in words): 1×10^−4 M to 1×10^−6 M vs control; for Mean optical density (OD) at 490 nm, cell proliferation / Median optical density (OD) at 490 nm, cell proliferation: 28 hours, serum-free DMEM, n=5
Experimental: Statistical analyses of data were performed using one-way ANOVA. P<0.05 is considered significant, while P<0.0001 is considered extremely significant and P<0.001 is considered as very very significant.

[2] = tested on: human skin keratinocyte cell line (normal human epidermal keratinocytes, neonatal); experiment: Proliferation of human skin keratinocytes (Cell Titer 96, absorbance 490 nm); format: cell-based; conditions: for Cell proliferating activity on human keratinocytes (in words): 1×10^−4 M to 1×10^−6 M vs control; for Mean optical density (OD) at 490 nm, cell proliferation / Median optical density (OD) at 490 nm, cell proliferation: 48 hours, KBM, n=5
Experimental: In addition, 100 μl of vehicle KBM was added to 5 wells as control. […] The spectrophotometric absorbance of each well was read at 490 nm.

[3] = tested on: healthy female volunteers; experiment: Dansyl chloride cell renewal study (stratum corneum renewal time); format: in vivo, human
Excerpt: The stratum corneum renewal time is the time taken for the whole thickness of the stratum corneum to be exfoliated and replaced by new cells from the dividing epidermis. This renewal time is a fundamental indicator of skin health. […] See Jansen L H, Hojyo-Tomoko M T, Kligman A M., Improved fluorescence staining technique for estimating turnover of the human stratum corneum, Br J Dermatol., 90, 9-12, 1974; Ridge B D, Batt M D, Palmer H E, Jarrett A, The dansyl chloride technique for stratum corneum renewal as an indicator of changes in epidermal mitotic activity following topical treatment., Br J Dermatol., 118, 167-74, 1988; Grove G L, Kligman A M, Age-associated changes in human epidermal cell renewal., J Geron., 38, 137-142, 1983. The time required for the dye to disappear is therefore an indication of the turnover time of the stratum corneum. Therefore, any differences in the time required for the dye to disappear from treated and non-treated sites can be considered to be an expression of that product's ability to enhance epidermal renewal.
A dansyl chloride cell renewal study was conducted in healthy female volunteers ranging from 43-64 years of age. The study consisted of a two-week treatment period during which time the products were applied topically twice daily, including on weekend days, to the test sites. The area of application was designated, approximately 5 cm×10 cm on the upper inner arm. The other arm served as a control with no product application. […] Eight females received jasmonic acid and seven females received gibberellic acid.
The time required for a marker dye to disappear was used as the measure of cell renewal rate.

[4] = tested on: Swiss Albino mice; experiment: Wound healing, full thickness skin wounds (3 mm biopsy punch) in mice; format: in vivo, mouse
Experimental: Twenty, 12-week old Swiss Albino mice were anesthetized with a ketamine/acepromazine cocktail and subjected to four full thickness skin wounds on the dorsolateral surface. […] Jasmonic acid (100 mg) was dissolved in 2 ml ethanol. 200 μl of the resulting solution was then added to 4.8 ml of WFI. Four wounds were made on either side of the spinal column using a 3 mm biopsy punch. To make the wounds, the skin was first tented and the punch was driven through the tented skin to generate both wounds with a single stroke. The upper left quadrant wound site of the animal was assigned to receive the control solution (WFI). […] The wound sites were dosed 5 times (twice on Day 0, Day 1, and once on Day 2). All wounds were treated with 5 μl of test or control solutions. Wounds were allowed to absorb the solutions for 5 minutes before returning the animals to their cages for recovery. All the animals were housed singly. The in-life phase for the animals is 5 days. Each day the wounds on the mice were traced onto glass slides and measured using calipers accurate to the nearest 0.1 mm. Photographs of the wounds were also taken daily for the duration of the study to measure wound size. Means and the standard deviations of the wound diameters for each day were calculated for the healing profile. The effects of the test substances on wound healing were compared to the effects of the control (WFI).

[5] = tested on: fibronectin production in the human skin fibroblast cell line; experiment: Fibronectin production in human skin fibroblasts (Takara EIA kit MK115, absorbance 450 nm); format: cell-based; conditions: for Stimulation of fibronectin production (in words): 1×10^−4 M to 1×10^−6 M vs control; for Mean optical density (OD) at 450 nm, fibronectin production / Median optical density (OD) at 450 nm, fibronectin production: 48 hours, n=2
Experimental: The cells were first grown in a 96-well assay system using Dulbecco's Modified Eagle's Medium (DMEM) with 10% fetal bovine serum (FBS) both purchased from Sigma Chemical Co, St. Louis, Mo. Serum-free DMEM was used as a control. […] The fibronectin assay was performed using the recommended 100 μl of the supernatant from each well of the 96-well plate. Standard buffer and stop solutions were freshly prepared before running the assay. A pre-antibody-coated 96 well plate (provided with the kit) was used to transfer the test samples and control. The plate was mixed, sealed and incubated for 1 hour at 37° C. All the wells were washed after removing sample solutions, 3 times (300 μl) with washing buffer. 100 ul of antibody-POD conjugate solution was added into the wells. Plate was mixed, sealed and incubated for one hour at 37° C. Solutions were removed and the wells were washed 3 times with washing buffer. All the wells were completely emptied at the end of washing from any liquid. 100 μl of substrate solution (hydrogen peroxide and tetramethylbenzidine in a buffered solution) was added to each well and the plate was incubated at room temperature for 15 minutes. 100 μl of stop solution (freshly prepared 1N H2SO4) was added to each well in the same order as substrate. The plate was gently mixed and absorbance was read at 450 nm.

[6] = tested on: collagen production in the human skin fibroblast cell line; experiment: Collagen production in human skin fibroblasts (Takara EIA kit MK101, absorbance 450 nm); format: cell-based; conditions: for Stimulation of collagen production (in words): 1×10^−4 M to 1×10^−6 M vs control; for Mean optical density (OD) at 450 nm, collagen production / Median optical density (OD) at 450 nm, collagen production: 48 hours, n=2
Experimental: The cells were first grown in a 96-well assay system using Dulbecco's Modified Eagle's Medium (DMEM) with 10% fetal bovine serum (FBS) both purchased from Sigma Chemical Co, St. Louis, Mo. Serum-free DMEM was used as a control.
The assay was done by using the recommended 20 ul of the supernatant from each well of the 96-well plate. Standard buffer and stop solutions were freshly prepared before running the assay. 100 ul of antibody-POD conjugate solution (supplied with the kit) was added into the wells using pre antibody coated 96 well plate (supplied with the kit). 20 ul of standard and test solutions (from the other 96-well plate containing fibroblasts) were added to appropriate wells. Plate was mixed gently, sealed and incubated for three hrs. at 37° C.
After incubation each well was washed carefully four times with PBS buffer (400 ul). All the wells were completely emptied at the end of washing from any liquid.
100 ul of substrate solution (hydrogen peroxide and tetramethylbenzidine in a buffer solution, supplied with the kit) was added to each well and the plate was incubated for 15 minutes. At this point 100 ul of stop solution (freshly prepared 1N H2SO4) was added to each well in the same order as substrate. The plate was gently mixed and absorbance was read at 450 nm.

Compound | Cell proliferating activity on human skin fibroblasts (in words) [1] | Mean optical density (OD) at 490 nm, cell proliferation ([1]; 1×10^−4 M) | Mean optical density (OD) at 490 nm, cell proliferation ([1]; 1×10^−5 M) | Median optical density (OD) at 490 nm, cell proliferation ([1]; 1×10^−5 M) | Mean optical density (OD) at 490 nm, cell proliferation ([1]; 1×10^−6 M) | Median optical density (OD) at 490 nm, cell proliferation ([1]; 1×10^−6 M) | Mean optical density (OD) at 490 nm, cell proliferation ([2]; 1×10^−4 M) | Median optical density (OD) at 490 nm, cell proliferation ([2]; 1×10^−4 M) | Mean optical density (OD) at 490 nm, cell proliferation ([2]; 1×10^−5 M) | Median optical density (OD) at 490 nm, cell proliferation ([2]; 1×10^−5 M) | Mean optical density (OD) at 490 nm, cell proliferation ([2]; 1×10^−6 M) | Median optical density (OD) at 490 nm, cell proliferation ([2]; 1×10^−6 M) | Stimulation of fibronectin production (in words) [5] | Mean optical density (OD) at 450 nm, fibronectin production ([5]; 1×10^−4 M) | Median optical density (OD) at 450 nm, fibronectin production ([5]; 1×10^−4 M) | Mean optical density (OD) at 450 nm, fibronectin production ([5]; 1×10^−5 M) | Median optical density (OD) at 450 nm, fibronectin production ([5]; 1×10^−5 M) | Mean optical density (OD) at 450 nm, fibronectin production ([5]; 1×10^−6 M) | Median optical density (OD) at 450 nm, fibronectin production ([5]; 1×10^−6 M) | Stimulation of collagen production (in words) [6] | other results
O=C(O)c1ccccc1O [salicylic acid] | strong cell proliferating activity especially at the lower concentrations; also recorded: all concentrations of salicylic acid had a significant effect on cell growth | 0.3916 | 0.5004 | 0.5110 | 0.4668 | 0.4690 | – | – | – | – | – | – | – | – | – | – | – | – | – | – | –
CC/C=C\C[C@H]1C(=O)CC[C@@H]1CC(=O)O [jasmonic acid] | – | – | – | – | – | – | 0.5732 | 0.5860 | 0.7628 | 0.7750 | 0.7734 | 0.7970 | effective for stimulating fibronectin production in human fibroblasts; also recorded: all compounds stimulated fibronectin production | 0.2060 | 0.2060 | 0.2025 | 0.2025 | 0.1955 | 0.1955 | strongly stimulated collagen production at higher concentrations; also recorded: Higher concentrations of jasmonic acid and medium concentrations of zeatin also stimulated collagen production | Cell proliferating activity on human keratinocytes (in words) [2]: strong cell proliferating activity especially at the lower concentrations; also recorded: all concentrations of jasmonic acid had an effect on cell growth; Time for cell renewal, treated skin (RENEWAL) ([3]; 0.25% in hyaluronic acid (0.5% aqueous solution), topical twice daily for two weeks, upper inner arm, individual patients, listed as JA): 12 Days (2×) and 16 Days and 15 Days (2×) and 17 Days and 14 Days and 11 Days; Skin irritation or redness ([3]; in vivo): no visible sign of any skin irritation or redness; Time control-treated wounds required to close to the same extent achieved in jasmonic acid-treated wounds on day 1 ([4]; topical 0.2% solution vs control (WFI)): over 2.5 days; Effect on wound closure / wound healing (in words) ([4]; topical 5 μl of 0.2% solution, 5 doses Day 0-2, vs control (WFI)): significantly accelerated the rate of wound healing; also recorded: experienced slower wound closure than mice receiving a 0.2% solution of jasmonic acid; Mean optical density (OD) at 450 nm, collagen production ([6]; 1×10^−4 M): 0.8040; Median optical density (OD) at 450 nm, collagen production ([6]; 1×10^−4 M): 0.8040; Mean optical density (OD) at 450 nm, collagen production ([6]; 1×10^−5 M): 0.7895; Median optical density (OD) at 450 nm, collagen production ([6]; 1×10^−5 M): 0.7895; Mean optical density (OD) at 450 nm, collagen production ([6]; 1×10^−6 M): 0.7475; Median optical density (OD) at 450 nm, collagen production ([6]; 1×10^−6 M): 0.7475
CC(=O)Oc1ccccc1C(=O)O [acetylsalicylic acid] | strong cell proliferating activity at all concentrations; also recorded: all concentrations of acetylsalicylic acid had a significant effect on cell growth | 0.5406 | 0.6276 | 0.6270 | 0.6590 | 0.6590 | – | – | – | – | – | – | – | – | – | – | – | – | – | – | Median optical density (OD) at 490 nm, cell proliferation ([1]; 1×10^−4 M): 0.5290
zeatin | – | – | – | – | – | – | 0.7726 | 0.7880 | 0.8716 | 0.8790 | 0.9770 | 0.9830 | effective for stimulating fibronectin production in human fibroblasts; also recorded: all compounds stimulated fibronectin production | 0.2075 | 0.2075 | 0.2110 | 0.2110 | 0.1995 | 0.1995 | strongly stimulated collagen production at medium concentrations; also recorded: medium concentrations of zeatin also stimulated collagen production | Cell proliferating activity on human keratinocytes (in words) ([2]; listed as t-zeatin): strong cell proliferating activity at all concentrations; also recorded: all concentrations of t-zeatin had a significant effect on cell growth; Mean optical density (OD) at 450 nm, collagen production ([6]; 1×10^−4 M): 0.7665; Median optical density (OD) at 450 nm, collagen production ([6]; 1×10^−4 M): 0.7665; Mean optical density (OD) at 450 nm, collagen production ([6]; 1×10^−5 M): 0.8115; Median optical density (OD) at 450 nm, collagen production ([6]; 1×10^−5 M): 0.8115; Mean optical density (OD) at 450 nm, collagen production ([6]; 1×10^−6 M): 0.7715; Median optical density (OD) at 450 nm, collagen production ([6]; 1×10^−6 M): 0.7715
